14 compounds from patent EP1803452A1, “ESTER DERIVATIVE AND PHARMACEUTICAL USE THEREOF” (Japan Tobacco, Inc., priority 2004, dated 2006) can be followed below.

Data set [1] in a line: Metabolic stability test in liver S9. It is filed as in vitro ADME. The settings on record: pH 7.4, human liver S9 2 mg protein/mL, LC/MS; for remaining at 10 min: unchanged form after 10 minutes at 37°C, read-out: Remaining rate in human liver S9 (%/10min); for remaining at 1 h: unchanged form after 60 minutes at 37°C, read-out: Remaining rate in human liver S9 (%/60min). An outline of the steps: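 Compound from DMSO solution was incubated at 37°C with human liver S9 (final 2 mg protein/mL) in 100 mM potassium phosphate pH 7.4 with an NADPH-regenerating system for 0, 10 and 60 minutes. Reactions were stopped with acetonitrile/0.1% formic acid. Unchanged compound was measured by LC/MS as remaining rate (%) relative to zero time.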

A short description of data set [2]: Stability test in buffer (pH 7.4). The settings on record: phosphate buffer/acetonitrile 7:3, 100 mM potassium phosphate buffer (pH 7.4) and acetonitrile 7:3 (v/v), LC/MS; for remaining at 10 min: 10 minutes at 37°C, read-out: Buf. remaining rate (%/10min); for remaining at 1 h: 60 minutes at 37°C, read-out: Buf. remaining rate (%/60min). It is filed as physicochemical. The method, boiled down: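 Parent compound measured by LC/MS after 0, 10 or 60 min at 37°C in a 7:3 (v/v) mix of 100 mM potassium phosphate buffer and acetonitrile, with the reaction stopped by acetonitrile plus formic acid (final 0.1%). Percentage remaining is expressed relative to the zero-time amount.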

Data set [3] in a line: Metabolic stability test in plasma. Format: in vitro ADME, human. The settings on record: LC/MS; for remaining at 10 min: unchanged form after 10 minutes at 37°C in human plasma, read-out: Remaining rate in human plasma (%/10min); for remaining at 1 h: unchanged form after 60 minutes at 37°C in human plasma, read-out: Remaining rate in human plasma (%/60min). An outline of the steps: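 Remaining rate (%) versus zero time was derived from LC/MS measurement of parent compound after centrifugation. Plasma from human, mouse and hamster received DMSO-dissolved compound and was held at 37°C for 0, 10 or 60 minutes before acetonitrile containing formic acid (final 0.1%) stopped the reaction.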

The structures appear in SMILES notation.

Take `COC(=O)c1cc(Cl)c(OC(=O)CCCc2ccc(NC(=O)c3ccc(C)nc3-c3ccc(C(F)(F)F)cc3)c(C(=O)N(C)C)c2)c(OC)c1` [Compound 1-36, 3-chloro-4-[4-(3-dimethylcarbamoyl-4-{[6-methyl-2-(4-trifluoromethylphenyl)pyridine-3-carbonyl]amino}phenyl)butyryloxy]-5-methoxybenzoic acid methyl ester]: the remaining at 10 min amounted to 3% in data set [1], 100% in data set [2] and 0% in data set [3]. The results for the remaining at 1 h in data set [1], in data set [2] and in data set [3] were 0%, 103% and 0%, respectively.

For `CCC(=O)c1ccc(OC(=O)CCCc2ccc(NC(=O)c3ccccc3-c3ccc(C(F)(F)F)cc3)c(C(=O)N(C)C)c2)cc1` [Compound 1-88, 4-(3-dimethylcarbamoyl-4-{(4'-trifluoromethylbiphenyl-2-carbonyl)amino}phenyl)butyric acid 4-propionylphenyl ester], the figures for the remaining at 10 min in data set [1], in data set [2] and in data set [3] were 0%, 102% and 39%, respectively. The remaining at 1 h in data set [1] worked out at 0%; in data set [2], 101%; in data set [3], 0%.

For the compound `CN(C)C(=O)c1cc(CCCC(=O)Oc2ccc(C(=O)OCCOCc3ccccc3)cc2)ccc1NC(=O)c1ccccc1-c1ccc(C(F)(F)F)cc1` [Compound 1-89, 4-[4-(3-dimethylcarbamoyl-4-{(4'-trifluoromethylbiphenyl-2-carbonyl)amino}phenyl)butyryloxy]benzoic acid 2-benzyloxyethyl ester], the remaining at 10 min in data set [1] was determined as 6%; in data set [2] it was 102%; in data set [3], 49%. The remaining at 1 h in data set [1] was 3%; in data set [2], 104%; in data set [3], 0%.

As to `CN(C)C(=O)c1cc(CCCC(=O)Oc2ccc(C(=O)OCCN3CCCC3=O)cc2)ccc1NC(=O)c1ccccc1-c1ccc(C(F)(F)F)cc1` [Compound 1-91, 4-[4-(3-dimethylcarbamoyl-4-{(4'-trifluoromethylbiphenyl-2-carbonyl)amino}phenyl)butyryloxy]benzoic acid 2-(2-oxopyrrolidin-1-yl)ethyl ester], the remaining at 10 min in data set [1] is 0%; in data set [2], 100%; in data set [3], 31%. Further, the remaining at 1 h in data set [1] came out at 0%; in data set [2] it was 105%; in data set [3], 0%.

Consider `COC(=O)c1cc(C)c(OC(=O)CCCc2ccc(NC(=O)c3ccc(C)nc3-c3ccc(C(F)(F)F)cc3)c(C(=O)N(C)C)c2)c(F)c1` [Compound 1-41, 4-[4-(3-dimethylcarbamoyl-4-{[6-methyl-2-(4-trifluoromethylphenyl)pyridine-3-carbonyl]amino}phenyl)butyryloxy]-3-fluoro-5-methylbenzoic acid methyl ester], for which the results for the remaining at 10 min in data set [1], in data set [2] and in data set [3] were 4%, 103% and 37%, respectively. In addition, the remaining at 1 h is 0% in data set [1], 106% in data set [2] and 0% in data set [3].

In the case of `COC(=O)c1ccc(OC(=O)CCCc2ccc(NC(=O)c3ccccc3-c3ccc(C(F)(F)F)cc3)c(C(=O)N(C)C)c2)c(OC)c1` [Compound 1-12, 4-(4-{3-dimethylcarbamoyl-4-[(4'-trifluoromethylbiphenyl-2-carbonyl)amino]phenyl}butyryloxy)-3-methoxybenzoic acid methyl ester], the results for the remaining at 10 min in data set [1], in data set [2] and in data set [3] were 0%, 100% and 10%, respectively. In addition, the remaining at 1 h stood at 0% in data set [1], 103% in data set [2] and 0% in data set [3].

For `COC(=O)c1ccc(-c2nc(C)ccc2C(=O)Nc2ccc(CCCC(=O)Oc3c(Cl)cc(C(=O)OC)cc3OC)cc2C(=O)N(C)C)cc1` [Compound 4-4, 3-chloro-4-[4-(3-dimethylcarbamoyl-4-{[2-(4-methoxycarbonylphenyl)-6-methylpyridine-3-carbonyl]amino}phenyl)butyryloxy]-5-methoxybenzoic acid methyl ester], the remaining at 10 min in data set [1] worked out at 4%; in data set [2], 99%; in data set [3] it was 0%. Further, the remaining at 1 h in data set [1] amounted to 0%; in data set [2] it was 97%; in data set [3] it was 0%.

In the case of `COC(=O)c1ccc(OC(=O)CCCc2ccc(NC(=O)c3ccccc3-c3ccc(C(F)(F)F)cc3)c(C(=O)N(C)C)c2)c(C(F)(F)F)c1` [Compound 1-20, 4-(4-{3-dimethylcarbamoyl-4-[(4'-trifluoromethylbiphenyl-2-carbonyl)amino]phenyl}butyryloxy)-3-trifluoromethylbenzoic acid methyl ester], the values for the remaining at 10 min in data set [1], in data set [2] and in data set [3] were 0%, 102% and 0%, respectively. The remaining at 1 h in data set [1] was 0%; in data set [2], 99%; in data set [3], 0%.

With `COC(=O)c1cc(C(=O)OC(C)C)cc(C)c1OC(=O)CCCc1ccc(NC(=O)c2ccc(C)nc2-c2ccc(C(F)(F)F)cc2)c(C(=O)N(C)C)c1` [Compound 1-111, 4-[4-(3-dimethylcarbamoyl-4-{[6-methyl-2-(4-trifluoromethylphenyl)pyridine-3-carbonyl]amino}phenyl)butyryloxy]-5-methylisophthalic acid 1-isopropyl ester 3-methyl ester], the remaining at 10 min was 41% in data set [1], 99% in data set [2] and 30% in data set [3]. The remaining at 1 h was 3% in data set [1], 99% in data set [2] and 0% in data set [3].

Turning to `CCOC(=O)c1ccc(OC(=O)CCCc2ccc(NC(=O)c3ccccc3-c3ccc(C(F)(F)F)cc3)c(C(=O)N3CCCC3)c2)c(F)c1` [Compound 1-16, 3-fluoro-4-(4-{3-(pyrrolidine-1-carbonyl)-4-[(4'-trifluoromethylbiphenyl-2-carbonyl)amino]phenyl)butyryloxy)benzoic acid ethyl ester], the remaining at 10 min amounted to 2% in data set [1], 98% in data set [2] and 3% in data set [3]. Moreover, the remaining at 1 h in data set [1] worked out at 0%; in data set [2], 103%; in data set [3], 0%.

As to `COC(=O)c1cc(C)c(OC(=O)CCCc2ccc(NC(=O)c3ccc(C)nc3-c3ccc(C(F)(F)F)cc3)c(C(=O)N(C)C)c2)c(C(F)(F)F)c1` [Compound 1-45, 4-[4-(3-dimethylcarbamoyl-4-([6-methyl-2-(4-trifluoromethylphenyl)pyridine-3-carbonyl]amino}phenyl)butyryloxy]-3-methyl-5-trifluoromethylbenzoic acid methyl ester], the remaining at 10 min turned out to be 12% in data set [1], 101% in data set [2] and 89% in data set [3]. Further, the figures for the remaining at 1 h in data set [1], in data set [2] and in data set [3] were 2%, 102% and 48%, respectively.

Consider `CN(C)C(=O)c1cc(CCC(=O)Oc2ccccc2)ccc1NC(=O)c1ccccc1-c1ccc(C(F)(F)F)cc1` [Compound 1-1, 3-{3-dimethylcarbamoyl-4-[(4'-trifluoromethylbiphenyl-2-carbonyl)amino]phenyl}propionic acid phenyl ester], for which the remaining at 10 min in data set [1] was found to be 0%; in data set [2] it was 101%; in data set [3], 80%. Also, the remaining at 1 h in data set [1] came out at 0%; in data set [2], 104%; in data set [3], 40%.

For the compound `CC(=O)NCCOC(=O)c1ccc(OC(=O)CCCc2ccc(NC(=O)c3ccccc3-c3ccc(C(F)(F)F)cc3)c(C(=O)N(C)C)c2)cc1` [Compound 1-77, 4-[4-(3-dimethylcarbamoyl-4-{(4'-trifluoromethylbiphenyl-2-carbonyl)amino}phenyl)butyryloxy]benzoic acid 2-acetylaminoethyl ester], the remaining at 10 min is 0% in data set [1], 99% in data set [2] and 59% in data set [3]. In addition, the remaining at 1 h in data set [1] is 0%; in data set [2] it was 100%; in data set [3], 2%.

`CCc1cc(C(=O)OC)ccc1OC(=O)CCCc1ccc(NC(=O)c2ccccc2-c2ccc(C(F)(F)F)cc2)c(C(=O)N(C)C)c1` [Compound 1-67, 4-[4-(3-dimethylcarbamoyl-4-{(4'-trifluoromethylbiphenyl-2-carbonyl)amino}phenyl)butyryloxy]-3-ethylbenzoic acid methyl ester]: the values for the remaining at 10 min in data set [1], in data set [2] and in data set [3] were 3%, 103% and 77%, respectively. In addition, the values for the remaining at 1 h in data set [1], in data set [2] and in data set [3] were 0%, 105% and 17%, respectively.
